Experiments:
[1] = tested on: non-malignant melanocytes PIG3V; test: Rereplication by FACS in non-malignant melanocytes; format: cell-based, human; conditions: 48 hours following treatment
Procedure: The effects of pevonedistat, vemurafenib, and/or silencing of various cell cycle-associated proteins by siRNA on cell cycle distribution and rereplication were assessed by propidium iodide staining and flow cytometry of asynchronous melanoma cultures. Synchronization of cells was not employed to avoid bias and to be able to measure the impact of these perturbations on proliferating cancer cells. Briefly, asynchronous melanoma cell lines were treated with pevonedistat or vemurafenib, or transfected with si-CDT1, si-CDT2, si-SET8, si-p21, sigeminin, si-EMI1, or si-GL2 for a time ranging from 24 to 96 hours. Cells were washed with cold PBS, harvested, and fixed in 70% (v/v) ethanol. Cells were subsequently treated with 20 μg of DNase-free RNase and stained with propidium iodide according to instructions of the manufacturer. Samples were analyzed on a FACSCAN™ (Becton, Dickinson and Company, Franklin Lakes, N.J., United States of America) and G0-G1, S, and G2-M fractions were segmented, and apoptotic (sub-G1 DNA content) and rereplicating (>G2/M DNA content) fractions were determined using FLOWJO® (FLOWJO, LLC, Ashland, Oreg., United States of America) and ModFit (Verity Software House, Topsham, Me., United States of America) software.

[2] = tested on: VMM39 xenografts; test: Melanoma flank xenograft in nude mice; format: in vivo; conditions: 60 mg/kg; p=1.8×10^−5
Procedure: (§1) All animal experiments were performed after approval of animal protocols by the Animal Care and Use Committee (ACUC) of the University of Virginia. Animals were housed and handled in accordance with the guidelines of the ACUC of the University of Virginia. The effect of pevonedistat on melanoma growth was tested in flank xenograft models. Foxn1^nu (20-25 g body weight, 4-5 weeks old females) athymic nude immune-deficient mice (Harlan Laboratories, now Envigo, Indianapolis, Ind., United States of America) were used in this study. Pevonedistat was dissolved in sterile 10% DMSO containing PBS (stock 1 mM), filtered, and stored in −20° C. until use. DM93, VMM39, SLM2, DM331, or SK-MEL-24 (2×10^6) melanoma cells were implanted in both flanks of immune-deficient mice (n=12 mice per group) and tumor growth was monitored until they grow to an average volume of 150-200 mm^3, and mice were randomized into groups for treatment. Animals were administered 0.2 mL pevonedistat solution (30 or 60 mg/kg body weight as indicated) intraperitoneally on a schedule of two cycles of five-day treatment followed by five treatment-free days, for 3 weeks, or more as indicated. Control animals were treated with an equal volume of sterile vehicle (10% DMSO in PBS). Where indicated, mice received control rodent diet, or rodent diet with 417 mg/kg PLX4720 (Research Diets, Inc. New Brunswick, N.J., United States of America). Tumors were measured with an electronic caliper every other day for 3 weeks post-drug injection. Animal weight was recorded once a week to detect any weight loss due to the toxicity of drug treatment or tumor burden. At the end of the treatment, animals were euthanized and tumors harvested for further processing. The results shown are mean tumor volumes±s.e.m; *p<0.05, **p<0.01, ***p<0.001.

[3] = tested on: SLM2 xenografts; test: Melanoma flank xenograft in nude mice; format: in vivo; conditions: 60 mg/kg; p=2.3×10^−3
Procedure: as §1

[4] = tested on: DM93 melanoma xenografts; test: Melanoma flank xenograft in nude mice; format: in vivo
Procedure: as §1

[5] = tested on: DM331 xenografts; test: Melanoma flank xenograft in nude mice; format: in vivo; conditions: vs. vehicle; PLX4720 in rodent diet 417 mg/kg
Procedure: as §1

[6] = tested on: cullin neddylation in Cal27 or FaDu cells; test: Immunoblotting of cullin neddylation; format: cell-based, human; conditions: 50 nM pevonedistat, 24 or 48 hours
Procedure: HNSCC cells were lysed using radio-immunoprecipitation assay (RIPA) lysis buffer (50 mM Tris, pH 8.0; 150 mM NaCl, 1% NP-40; 0.5% sodium deoxycolate; 0.1% SDS; 1 mM Benzamidin-HCl; 0.5 μg/ml Leupeptin; 0.5 μg/ml Aprotinin; 1 μg/ml pepstatin; 20 mM NaF; 20 mM Na3VO4). Equal amounts of protein were electrophoretically separated in a polyacrylamide 8-12% gel (Bio-Rad Laboratories, Inc., Hercules, Calif., United States of America), trans-blotted to a nitrocellulose membrane, and incubated with primary antibodies for one hour at room temperature or overnight at 4° C. The immunoblot signals were detected by enhanced chemiluminescence (EMD Millipore Corporation, Billerica, Mass., United States of America).

[7] = tested on: PIG3V or PIG1 immortalized but not malignant melanocytic cell lines; test: Proliferation of immortalized non-malignant melanocytic cell lines; format: cell-based; conditions: Homo sapiens

## NS(=O)(=O)OCC1CC(n2ccc3c(NC4CCc5ccccc54)ncnc32)CC1O [pevonedistat, ((1S,2S,4R)-4-(4-((1S)-2,3-Dihydro-H-inden-1-ylamino)-7H-pyrrolo(2,3-d)pyrimidin-7-yl)-2-hydroxycyclopentyl)methyl sulphamate]
[1]
  rereplication: less than 3%
[2]
  growth of VMM39 xenografts: significantly inhibited the growth
[3]
  growth of SLM2 xenografts: significantly inhibited the growth
[4]; 30 mg/kg, p=0.009
  growth of sg-control DM93 xenografts: significantly inhibited the growth
[4]; 30 mg/kg, p=0.092
  growth of sg-p21-1 DM93 xenografts: failed to inhibit the growth
[4]; 30 mg/kg, p=0.66
  growth of sg-SET8-1 DM93 xenografts: failed to inhibit the growth
[4]; 30 or 60 mg/kg
  tumor regression: did not result in tumor regression
[4]; either drug concentration, up to 10 days following cessation
  tumor regrowth after cessation of treatment: not detectable
[4]; nude mice, 30 or 60 mg/kg, 5 days on/5 days off, two cycles
  tolerability: well tolerated
[5]
  growth of DM331 xenografts: inhibited
[6]
  cullin neddylation: inhibited cullin neddylation
[7]
  IC50: > 500 nM
